In ChEMBL document CHEMBL3885881, “DrugMatrix”:

Organism: Rattus norvegicus
Assay: DrugMatrix - Regimen: Daily Repeat
Type: toxicity, organism-based, Sprague-Dawley
Parameters: regimen Daily Repeat, gender Male, age 6-8 weeks
Settings: in vivo, po, route oral GAVAGE, vehicle 100 % WATER; for ABSOLUTE BASOPHIL / ABSOLUTE EOSINOPHIL / ABSOLUTE LYMPHOCYTE / ABSOLUTE MONOCYTE / ABSOLUTE SEGMENTED NEUTROPHIL / BASOPHIL / EOSINOPHIL / ERYTHROCYTE COUNT / HEMATOCRIT / HEMOGLOBIN / LEUKOCYTE COUNT / LYMPHOCYTE / MEAN CORPUSCULAR HEMOGLOBIN / MEAN CORPUSCULAR HEMOGLOBIN CONCENTRATION / NEUTROPHIL / NUCLEATED RED BLOOD CELLS / PLATELET COUNT: tissue Blood; for ALANINE AMINOTRANSFERASE / ALBUMIN / ALKALINE PHOSPHATASE / ASPARTATE AMINOTRANSFERASE / BLOOD UREA NITROGEN / CARBON DIOXIDE / CHLORIDE / CREATINE PHOSPHOKINASE / CREATININE / GLUCOSE / LACTATE DEHYDROGENASE / LIPASE / PHOSPHORUS / POTASSIUM / SODIUM / TOTAL BILIRUBIN / TOTAL PROTEIN / URIC ACID / CHOLESTEROL: tissue Plasma
[1] = 0 mg/kg, 72 h, dose level Control, time 3 day
[2] = 0 mg/kg, 120 h, dose level Control, time 5 day
[3] = 94 mg/kg, 72 h, dose level High, time 3 day

Structure (SMILES): CN1[C@@H]2CC[C@H]1C[C@@H](OC(=O)C(CO)c1ccccc1)C2 (some centres not stated) [ATROPINE]
- ABSOLUTE BASOPHIL [1]: 0 CELLS/uL
- ABSOLUTE EOSINOPHIL [1]: 33.67 CELLS/uL
- ABSOLUTE LYMPHOCYTE [1]: 11257.17 CELLS/uL
- ABSOLUTE MONOCYTE [1]: 72.17 CELLS/uL
- ABSOLUTE SEGMENTED NEUTROPHIL [1]: 1220.33 CELLS/uL
- BASOPHIL [1]: 0%
- EOSINOPHIL [1]: 0.33%
- ERYTHROCYTE COUNT [1]: 5 x10E6/uL
- HEMATOCRIT [1]: 32.62%
- HEMOGLOBIN [1]: 12.83 G/DL
- LEUKOCYTE COUNT [1]: 12.58 x10E3/uL
- LYMPHOCYTE [1]: 89%
- MEAN CORPUSCULAR HEMOGLOBIN [1]: 25.67 pg
- MEAN CORPUSCULAR HEMOGLOBIN CONCENTRATION [1]: 39.35 G/DL
- NEUTROPHIL [1]: 10%
- NUCLEATED RED BLOOD CELLS [1]: 0 /100WBC
- PLATELET COUNT [1]: 1162.5 x10E3/uL
- ALANINE AMINOTRANSFERASE [1]: 45.33 u/L
- ALBUMIN [1]: 3.95 G/DL
- ALKALINE PHOSPHATASE [1]: 356.17 u/L
- ASPARTATE AMINOTRANSFERASE [1]: 81 u/L
- BLOOD UREA NITROGEN [1]: 11 mg/dL
- CARBON DIOXIDE [1]: 29.83 mmol/L
- CHLORIDE [1]: 97.8 MEQ/L
- CREATINE PHOSPHOKINASE [1]: 211.33 u/L
- CREATININE [1]: 0.11 mg/dL
- GLUCOSE [1]: 164.67 mg/dL
- LACTATE DEHYDROGENASE [1]: 143.17 u/L
- LIPASE [1]: 10.17 u/L
- PHOSPHORUS [1]: 10.88 mg/dL
- POTASSIUM [1]: 6.08 MEQ/L
- SODIUM [1]: 141.54 MEQ/L
- TOTAL BILIRUBIN [1]: 0.23 mg/dL
- TOTAL PROTEIN [1]: 5.65 G/DL
- URIC ACID [1]: 1 mg/dL
- ABSOLUTE BASOPHIL [2]: 0 CELLS/uL
- ABSOLUTE EOSINOPHIL [2]: 48.67 CELLS/uL
- ABSOLUTE LYMPHOCYTE [2]: 9267.83 CELLS/uL
- ABSOLUTE MONOCYTE [2]: 194.33 CELLS/uL
- ABSOLUTE SEGMENTED NEUTROPHIL [2]: 572.5 CELLS/uL
- BASOPHIL [2]: 0%
- EOSINOPHIL [2]: 0.33%
- ERYTHROCYTE COUNT [2]: 5.41 x10E6/uL
- HEMATOCRIT [2]: 36.17%
- HEMOGLOBIN [2]: 13.9 G/DL
- LEUKOCYTE COUNT [2]: 10.08 x10E3/uL
- LYMPHOCYTE [2]: 92.17%
- MEAN CORPUSCULAR HEMOGLOBIN [2]: 25.73 pg
- MEAN CORPUSCULAR HEMOGLOBIN CONCENTRATION [2]: 38.45 G/DL
- NEUTROPHIL [2]: 5.67%
- NUCLEATED RED BLOOD CELLS [2]: 0.33 /100WBC
- PLATELET COUNT [2]: 1122.33 x10E3/uL
- ALANINE AMINOTRANSFERASE [2]: 52.83 u/L
- ALBUMIN [2]: 4.12 G/DL
- ALKALINE PHOSPHATASE [2]: 367.33 u/L
- ASPARTATE AMINOTRANSFERASE [2]: 88 u/L
- BLOOD UREA NITROGEN [2]: 12.67 mg/dL
- CARBON DIOXIDE [2]: 33.67 mmol/L
- CHLORIDE [2]: 97 MEQ/L
- CHOLESTEROL [2]: 67.5 mg/dL
- CREATINE PHOSPHOKINASE [2]: 358.67 u/L
- CREATININE [2]: 0.14 mg/dL
- GLUCOSE [2]: 152.33 mg/dL
- LACTATE DEHYDROGENASE [2]: 180 u/L
- LIPASE [2]: 10.5 u/L
- PHOSPHORUS [2]: 10.63 mg/dL
- POTASSIUM [2]: 5.99 MEQ/L
- SODIUM [2]: 141.85 MEQ/L
- TOTAL BILIRUBIN [2]: 0.2 mg/dL
- TOTAL PROTEIN [2]: 6.18 G/DL
- URIC ACID [2]: 0.52 mg/dL
- ABSOLUTE BASOPHIL [3]: 0 CELLS/uL
- ABSOLUTE EOSINOPHIL [3]: 0 CELLS/uL
- ABSOLUTE LYMPHOCYTE [3]: 12944 CELLS/uL
- ABSOLUTE MONOCYTE [3]: 33.33 CELLS/uL
- ABSOLUTE SEGMENTED NEUTROPHIL [3]: 789.33 CELLS/uL
- BASOPHIL [3]: 0%
- EOSINOPHIL [3]: 0%
- ERYTHROCYTE COUNT [3]: 5.37 x10E6/uL
- HEMATOCRIT [3]: 33.77%
- HEMOGLOBIN [3]: 13.4 G/DL
- LEUKOCYTE COUNT [3]: 13.77 x10E3/uL
- LYMPHOCYTE [3]: 93.67%
- MEAN CORPUSCULAR HEMOGLOBIN [3]: 24.93 pg
- MEAN CORPUSCULAR HEMOGLOBIN CONCENTRATION [3]: 39.67 G/DL
- NEUTROPHIL [3]: 6%
- NUCLEATED RED BLOOD CELLS [3]: 0 /100WBC
- PLATELET COUNT [3]: 1031.67 x10E3/uL
- ALANINE AMINOTRANSFERASE [3]: 59.33 u/L
- ALBUMIN [3]: 4.03 G/DL
- ALKALINE PHOSPHATASE [3]: 322.67 u/L
- ASPARTATE AMINOTRANSFERASE [3]: 115 u/L
- BLOOD UREA NITROGEN [3]: 11 mg/dL
- CARBON DIOXIDE [3]: 26.33 mmol/L
- CHLORIDE [3]: 102.5 MEQ/L
- CHOLESTEROL [3]: 72.67 mg/dL
- CREATINE PHOSPHOKINASE [3]: 681.33 u/L
- CREATININE [3]: 0.13 mg/dL
- GLUCOSE [3]: 149.67 mg/dL
- LACTATE DEHYDROGENASE [3]: 237 u/L
- LIPASE [3]: 10.67 u/L
- PHOSPHORUS [3]: 9.43 mg/dL
- POTASSIUM [3]: 5.53 MEQ/L
- SODIUM [3]: 142.3 MEQ/L
- TOTAL BILIRUBIN [3]: 0.3 mg/dL
- TOTAL PROTEIN [3]: 5.6 G/DL
- URIC ACID [3]: 1 mg/dL
